The values below come from patent US20250122155A1, “NOVEL INDOLE DERIVATIVE, PHARMACEUTICAL COMPOSITION COMPRISING SAME, AND USE THEREOF” (MITOIMMUNE THERAPEUTICS INC., priority 2021, published 2025).

Where only a bound is given, the exact number is not on record here.

The test system of this test is H9C2 cells. The test can be described thus: Protective effect on heart cells against t-BHP (LDH release). In kind it is cell-based. To be noted: H9C2, t-BHP 400 μM, 2 hours, read-out: EC50 (μM), Cell Protection Effect against t-BHP in Heart Cells. The protocol: In order to identify the protective effect with regard to heart cells, H9C2 cells were divided into 96-well plates by 1.5×10^4, and cultured for 24 hours. The respective wells were treated with compounds of the examples 3× serial diluted to final concentrations of 30, 10, 3, 1, 0.3, 0.1, 0.03 and 0.01 μM, then incubated for 15 to 20 minutes. After treating with t-BHP with a final concentration of 400 μM, incubation was performed for 2 hours. To confirm the protective effect of each compound, a Cytotoxicity LDH assay kit [Dojindo; CK12] was used to measure the degree of extracellular secretion of LDH. After 2-hour treatment of the cells with t-BHP was completed, 100 μL each of the supernatant in which the cells were placed was collected and moved to a new 96-well plate. 100 μL/well of the assay buffer included in the kit (same amount as the sample) was added, followed by wrapping with foil and reacting for 30 minutes at room temperature. Observing the change of color in the sample, 50 μL/well of stop solution was added, then an iD3 spectrometer was used to measure absorbance at 490 nm and calculate the EC50 values. The EC50 of the compounds of the examples is preferably no more than 1.0 μM, and more preferably no more than 0.3 μM.
On the technique in general: LDH in the medium is a marker of cell lysis.

Broadly, the EC50 is the concentration giving half of the maximal effect.

On to `COCCOCc1cc(NC2CCOCC2)c2[nH]c(-c3ccc(C#CC(C)(C)O)cc3)cc2c1` [Example 59, 4-(4-(5-((2-methoxyethoxy)methyl)-7-((tetrahydro-2H-pyran-4-yl)amino)-1H-indol-2-yl)phenyl)-2-methylbut3-yn-2-ol], for which the EC50 lay within 0.3 to 1 µM.

Regarding `COCCOCc1cc(NC2CCOCC2)c2[nH]c(-c3ccc(C)cc3)cc2c1` [Example 60, 5-((2-methoxyethoxy)methyl)-N-(tetrahydro-2H-pyran-4-yl)-2-(p-tolyl)-1H-indol-7-amine], the concentration for a half-maximal effect (EC50) was at most 0.3 µM.

As for `COCCCOCc1cc(NC2CCCC2)c2[nH]c(-c3ccccc3)cc2c1` [Example 61, N-cyclopentyl-5-((3-methoxypropoxy)methyl)-2-phenyl-1H-indol-7-amine], the EC50 is at most 0.3 µM.

In the case of `COCCCOCc1cc(NC2COC2)c2[nH]c(-c3ccccc3)cc2c1` [Example 62, 5-((3-methoxypropoxy)methyl)-N-(oxetan-3-yl)-2-phenyl-1H-indol-7-amine], the EC50 was at most 0.3 µM.

Consider `COCCCOCc1cc(NC2CCOCC2)c2[nH]c(-c3ccccc3)cc2c1` [Example 63, 5-((3-methoxypropoxy)methyl)-2-phenyl-N-(tetrahydro-2H-pyran-4-yl)-1H-indol-7-amine], for which the EC50 was in the range of 0.3 to 1 µM.

With `COCCOCCCc1cc(NC2CCOCC2)c2[nH]c(-c3ccccc3)cc2c1` [Example 65, 5-(3-(2-methoxyethoxy)propyl)-2-phenyl-N-(tetrahydro-2H-pyran-4-yl)-1H-indol-7-amine], the 50% effective concentration (EC50) was at most 0.3 µM.

`COCCOCCc1cc(NC2CCCC2)c2[nH]c(-c3ccccc3)cc2c1` [Example 66, N-cyclopentyl-5-(2-(2-methoxyethoxy)ethyl)-2-phenyl-1H-indol-7-amine]: the EC50 was at most 0.3 µM.

`COCCOCCc1cc(NC2CCOCC2)c2[nH]c(-c3ccccc3)cc2c1` [Example 67, 5-(2-(2-methoxyethoxy)ethyl)-2-phenyl-N-(tetrahydro-2H-pyran-4-yl)-1H-indole-7-amine]: the EC50 is at most 0.3 µM.

As for `COCCOCc1cc(N2CCCCC2)c2[nH]c(-c3ccccc3)cc2c1` [Example 68, 5-((2-methoxyethoxy)methyl)-2-phenyl-7-(piperidin-1-yl)-1H-indole], the EC50 was over 1 µM.
